The record followed here is US10947574B2, “Method for producing fermented carotenoid using carotenoid-producing bacteria obtained by using cobalt-containing culturing medium” (ENEOS CORPORATION, priority 2015, dated 2021).

Each structure is given as a SMILES string.

The subject of this assay is Paracoccus carotinifaciens strain E-396 (FERM BP-4283). Format: cell-based. As to conditions: each trace metal added singly at final concentration of Table 1; shaking at 28° C. for 4 days. On the procedure: Subsequently, a medium of the following composition (glucose 30 g/L, filtered corn steep liquor 30 g/L, ammonium sulfate 1.5 g/L, potassium dihydrogen phosphate 1.5 g/L, disodium hydrogen phosphate dodecahydrate 3.8 g/L, calcium chloride dihydrate 5.0 g/L, magnesium sulfate heptahydrate 0.7 g/L, iron sulfate heptahydrate 1.0 g/L, silicon-based defoaming agent 0.2 g/L) was dispensed in 7.2 ml volumes into cotton-plugged test tubes having an inner diameter of 18 mm to prepare 13 test tubes containing a test tube medium for production. The ingredients used to prepare the test tube medium for production were obtained from lots where microbial cells had been confirmed not to grow well.
The 12 trace metals indicated in Table 1 were separately prepared in 0.8 ml volumes to have their final concentrations indicated in Table 1 and then added to the above 12 test tubes for production, respectively. The remaining one test tube was supplemented with 0.8 ml of ion exchanged water.
The resulting culture solution was then inoculated in 0.05 ml volumes into the 13 types of test tube media for production and cultured under shaking at 28° C. for 4 days at 300 spm.

Molecule `OB(O)O` [Boric acid] yielded an OD610 of 4.
Molecule `O.O.O.O.O.O.[Cl][Cr]([Cl])[Cl]` [Chromium (III) chloride hexahydrate] registered an OD610 of 3.
As for `[I-].[K+]` [Potassium iodide], the figure is 4.
As for `O.O.[Na+].[Na+].[O]=[Mo](=[O])([O-])[O-]` [Sodium molybdate dihydrate], the figure is 4.
As for `O=[Se](=O)(O)O` [Sodium selenate], the figure is 3; as for `[Na+].[Na+].[O]=[W](=[O])([O-])[O-]` [Sodium tungstate], 4.
